In patent US10604739B2, “Cardiomyocyte production” (Cellular Dynamics International, Inc., priority 2009, dated 2020):

Experiments:
Type in all cases: cell-based, human
[1] = test system: iPS cells; test: H1152 duration and aggregate formation, Experiment 1: cardiomyocyte differentiation; parameters: Average Cardiomyocyte Yield: unit not given here; conditions: for Average # cTnT Cells/Liter (in millions) / Average % Troponin T+ / Average Cardiomyocyte Yield / Average Cell Count per flask (in millions) / Average ratio iPS to CM: day 14, T25
Protocol: (§1) The purpose of this Example was to see the effect of 1 day or 2 day treatment with the compound on Cardiomyocyte development. Initial testing with H1152 included the compound in the media: 1 μM on day one with the TeSR media and 0.5 μM on day 2 with the compound in the aggregate transition media. After adopting a new method which included the H1152 compound for 1 day at 1 μM only, there appeared to be a loss of efficiency with the initial cell survival, resulting in this study to determine if extended H1152 would increase cell survival without a negative impact on […]. Cardiomyocyte differentiation conditions and experimental parameters were summarized in Tables 11-12 and 13-14 for Experiments 1 and 2, respectively. Critical reagents and materials were obtained as described in the previous example.

[2] = test system: iPS cells; test: H1152 duration and aggregate formation, Experiment 2: cardiomyocyte differentiation; parameters: Average Cardiomyocyte Yield: unit not given here; conditions: for Average # cTnT Cells/Liter (in millions) / Average % Troponin T+ / Average Cardiomyocyte Yield / Average Cell Count per flask (in millions) / Average ratio iPS to CM: day 14, T25
Protocol: as §1

[3] = test system: IPS 6.1 cells; test: Effect of different concentrations of H1152 on cell survival; conditions: one day dose, FIG. 28
Protocol: FIG. 28: Effect of different concentrations of H1152 on cell survival with one day dose of H1152 on IPS 6.1 cells.
Effect of different concentrations of H1152 was also tested on cell survival with one day dose of H1152 on IPS 6.1 cells (FIG. 28).

[4] = 3e5 cells/ml seeding, H1152 1 μM 24 hour exposure
[5] = 3e5 cells/ml seeding, H1152 1 μM 48 hour exposure
[6] = 5e5 cells/ml seeding, H1152 1 μM 24 hour exposure
[7] = 5e5 cells/ml seeding, H1152 1 μM 48 hour exposure
[8] = 7e5 cells/ml seeding, H1152 1 μM 24 hour exposure
[9] = 7e5 cells/ml seeding, H1152 1 μM 48 hour exposure
[10] = 10e5 cells/ml seeding, H1152 1 μM 24 hour exposure
[11] = 10e5 cells/ml seeding, H1152 1 μM 48 hour exposure
[12] = 15e5 cells/ml seeding, H1152 1 μM 24 hour exposure
[13] = 15e5 cells/ml seeding, H1152 1 μM 48 hour exposure

For Cc1cncc2cccc(S(=O)(=O)N3CCCNC[C@@H]3C)c12 [H1152], the “Average # cTnT Cells/Liter (in millions)” value [1, 4] was 2.91 ± 1.27 millions, the “Average % Troponin T+” value [1, 4] was 6.83 ± 0.26% and the “Average Cardiomyocyte Yield” value [1, 4] was 17445 ± 7677. The “Average Cell Count per flask (in millions)” value (“Average Cell Count per flask” for short) [1, 4] was 0.25 ± 0.11 millions, the “Average ratio iPS to CM” value [1, 4] was 99 ± 45 and the “Average # cTnT Cells/Liter (in millions)” value [1, 5] was 9.92 ± 0.25 millions. For the same molecule, the “Average % Troponin T+” value [1, 5] was 4.40 ± 1.00%, the “Average Cardiomyocyte Yield” value [1, 5] was 59575 ± 1514 and the “Average Cell Count per flask” value [1, 5] was 1.39 ± 0.28 millions. The “Average ratio iPS to CM” value [1, 5] was 25 ± 1, the “Average # cTnT Cells/Liter (in millions)” value [1, 6] was 3.02 ± 1.66 millions and the “Average % Troponin T+” value [1, 6] was 6.26 ± 3.40%. The “Average Cardiomyocyte Yield” value [1, 6] was 18123 ± 10004, the “Average Cell Count per flask” value [1, 6] was 0.46 ± 0.48 millions and the “Average ratio iPS to CM” value [1, 6] was 180 ± 119. For the same molecule, the “Average # cTnT Cells/Liter (in millions)” value [1, 7] was 19.52 ± 8.01 millions, the “Average % Troponin T+” value [1, 7] was 3.37 ± 1.12% and the “Average Cardiomyocyte Yield” value [1, 7] was 117137 ± 48094. The “Average Cell Count per flask” value [1, 7] was 3.41 ± 0.47 millions, the “Average ratio iPS to CM” value [1, 7] was 24 ± 11 and the “Average # cTnT Cells/Liter (in millions)” value [1, 8] was 6.54 ± 0.91 millions. For the same molecule, the “Average % Troponin T+” value [1, 8] was 5.41 ± 1.58%, the “Average Cardiomyocyte Yield” value [1, 8] was 39272 ± 5494 and the “Average Cell Count per flask” value [1, 8] was 0.77 ± 0.29 millions. For the same molecule, the “Average ratio iPS to CM” value [1, 8] was 90 ± 12, the “Average # cTnT Cells/Liter (in millions)” value [1, 9] was 11.71 ± 6.74 millions and the “Average % Troponin T+” value [1, 9] was 2.23 ± 0.28%. For the same molecule, the “Average Cardiomyocyte Yield” value [1, 9] was 70299 ± 40479, the “Average Cell Count per flask” value [1, 9] was 3.19 ± 1.81 millions and the “Average ratio iPS to CM” value [1, 9] was 72 ± 58. For the same molecule, the “Average # cTnT Cells/Liter (in millions)” value [1, 10] was 8.53 ± 3.67 millions, the “Average % Troponin T+” value [1, 10] was 3.29 ± 2.73% and the “Average Cardiomyocyte Yield” value [1, 10] was 51174 ± 22025. For the same molecule, the “Average Cell Count per flask” value [1, 10] was 1.95 ± 0.91 millions, the “Average ratio iPS to CM” value [1, 10] was 116 ± 66 and the “Average # cTnT Cells/Liter (in millions)” value [1, 11] was 37.33 ± 11.90 millions. For the same molecule, the “Average % Troponin T+” value [1, 11] was 4.70 ± 1.08%, the “Average Cardiomyocyte Yield” value [1, 11] was 224015 ± 71410 and the “Average Cell Count per flask” value [1, 11] was 4.69 ± 0.64 millions. For the same molecule, the “Average ratio iPS to CM” value [1, 11] was 24 ± 9, the “Average # cTnT Cells/Liter (in millions)” value [1, 12] was 13.35 ± 5.17 millions and the “Average % Troponin T+” value [1, 12] was 2.05 ± 0.89%. For the same molecule, the “Average Cardiomyocyte Yield” value [1, 12] was 80131 ± 31034, the “Average Cell Count per flask” value [1, 12] was 4.01 ± 0.46 millions and the “Average ratio iPS to CM” value [1, 12] was 105 ± 43. For the same molecule, the “Average # cTnT Cells/Liter (in millions)” value [1, 13] was 49.87 ± 21.23 millions, the “Average % Troponin T+” value [1, 13] was 4.84 ± 1.61% and the “Average Cardiomyocyte Yield” value [1, 13] was 299246 ± 127411. For the same molecule, the “Average Cell Count per flask” value [1, 13] was 6.16 ± 1.31 millions, the “Average ratio iPS to CM” value [1, 13] was 28 ± 10 and the “Effect of increasing H1152 exposure duration to 48 hours on cTnT yield” value ([1]; Experiment 1, each cell density condition, 14 days) was “increased cTnT yield in each cell density condition”. The Cell survival ([1]; two day treatment at 1 μM, each of the experiments) was “significant increase in the cell survival”, the “Average # cTnT Cells/Liter (in millions)” value [2, 4] was 11.06 ± 9.07 millions and the “Average % Troponin T+” value [2, 4] was 12.71 ± 1.72%. The “Average Cardiomyocyte Yield” value [2, 4] was 66383 ± 54471, the “Average Cell Count per flask” value [2, 4] was 0.57 ± 0.54 millions and the “Average ratio iPS to CM” value [2, 4] was 33 ± 20. The “Average # cTnT Cells/Liter (in millions)” value [2, 5] was 34.67 ± 15.81 millions, the “Average % Troponin T+” value [2, 5] was 7.99 ± 2.24% and the “Average Cardiomyocyte Yield” value [2, 5] was 208066 ± 94874. For the same molecule, the “Average Cell Count per flask” value [2, 5] was 2.52 ± 0.51 millions, the “Average ratio iPS to CM” value [2, 5] was 8 ± 4 and the “Average # cTnT Cells/Liter (in millions)” value [2, 6] was 8.84 ± 6.01 millions. For the same molecule, the “Average % Troponin T+” value [2, 6] was 9.98 ± 2.40%, the “Average Cardiomyocyte Yield” value [2, 6] was 53055 ± 36109 and the “Average Cell Count per flask” value [2, 6] was 0.52 ± 0.35 millions. The “Average ratio iPS to CM” value [2, 6] was 67 ± 49, the “Average # cTnT Cells/Liter (in millions)” value [2, 7] was 38.40 ± 23.14 millions and the “Average % Troponin T+” value [2, 7] was 5.20 ± 3.33%. For the same molecule, the “Average Cardiomyocyte Yield” value [2, 7] was 230454 ± 138874, the “Average Cell Count per flask” value [2, 7] was 4.56 ± 0.48 millions and the “Average ratio iPS to CM” value [2, 7] was 14 ± 7. For the same molecule, the “Average # cTnT Cells/Liter (in millions)” value [2, 10] was 14.18 ± 7.34 millions, the “Average % Troponin T+” value [2, 10] was 5.42 ± 1.08% and the “Average Cardiomyocyte Yield” value [2, 10] was 85129 ± 44092. The “Average Cell Count per flask” value [2, 10] was 1.54 ± 063 millions, the “Average ratio iPS to CM” value [2, 10] was 72 ± 42 and the “Average # cTnT Cells/Liter (in millions)” value [2, 11] was 16.03 ± 13.63 millions. For the same molecule, the “Average % Troponin T+” value [2, 11] was 1.40 ± 1.45%, the “Average Cardiomyocyte Yield” value [2, 11] was 96206 ± 81824 and the “Average Cell Count per flask” value [2, 11] was 7.84 ± 1.14 millions. The “Average ratio iPS to CM” value [2, 11] was 77 ± 44, the “Average # cTnT Cells/Liter (in millions)” value [2, 12] was 28.54 ± 10.83 millions and the “Average % Troponin T+” value [2, 12] was 6.48 ± 2.42%. The “Average Cardiomyocyte Yield” value [2, 12] was 171264 ± 65034, the “Average Cell Count per flask” value [2, 12] was 2.63 ± 0.14 millions and the “Average ratio iPS to CM” value [2, 12] was 48 ± 17. The “Average # cTnT Cells/Liter (in millions)” value [2, 13] was 28.13 ± 30.17 millions, the “Average % Troponin T+” value [2, 13] was 2.36 ± 2.03% and the “Average Cardiomyocyte Yield” value [2, 13] was 168815 ± 181030. For the same molecule, the “Average Cell Count per flask” value [2, 13] was 6.16 ± 1.31 millions, the “Average ratio iPS to CM” value [2, 13] was 97 ± 85 and the “Effect of increasing H1152 exposure duration to 48 hours on cTnT yield” value ([2]; Experiment 2, cultures initially seeded with 3e5 and 5e5 cells/mL, 14 days) was “increased cTnT yield in the cultures initially seeded with 3e5 and 5e5 cells/mL”. The “Optimal concentration for aggregate formation” value [3] was 1 µM.
